Data reported in patent publication US20080207692A1, “Stabilized and preserved ketoifen ophthalmic compositions” (priority 2005, published 2008).

How the values were obtained:
Type in all cases: physicochemical
[1] = Stability of ketotifen-perborate formulations filled in polypropylene bottles and stored at 55° C.; details: stored at 55° C., Table 2 formulations
Procedure: The stability of the formulations shown in Table 1 are evaluated by filling the formulations in bottles and storing the formulations at 55° C. for various times.

[2] = Compatibility of ketotifen with low concentrations of hydrogen peroxide
[3] = Hot stability: formulations heated at 100° C. for 24 hours

Stability of ketotifen (in words) [1]: stable
Compatibility with low concentrations of hydrogen peroxide ([2]; formulated at a pH lower than neutral pH): compatible
Compatibility with low concentrations of hydrogen peroxide ([2]; formulated at neutral pH, i.e., a pH of about 7): not compatible
Stability of ketotifen (in words) [3]: stable
SMILES: CN1CCC(=C2c3ccccc3CC(=O)c3sccc32)CC1 [ketotifen]
